“Also recorded” adds a separate entry of the source. Peptide text beside a SMILES is read from it.
Assays:
[1] = system: Stomach ulcers induced by the Shay procedure; assay: Shay model, stomach ulcer formation and acid secretion (Example 8); assay type: in vivo, rat; conditions: for pH: stomach contents after 24 hours; for % WITH ULCERS: positive if a single lesion is noted; for Ulcer formation and stomach acid secretion, in words: Shay model, compared with saline controls
Experimental: Stomach ulcers were induced in rats by the Shay procedure. Briefly, the passage between the stomach and the intestine in the rat is tied off, thereby causing a buildup of stomach acid. Ulcer formation is visible after 18-24 hours of ligation.
For treatment, the rats received either GHL-Cu or a derivative in 0.25 ml of saline into the stomach via a gastric feeding tube immediately after the surgical procedure. Control rats received saline only. After 24 hours, the rats were sacrificed, the stomachs were removed and photographed. The acidity of the stomach contents was also measured.
In the experiments reported here, the rats were treated with various doses of glycyl-L-histidyl-L-lysine (GHL), GHL-Cu (2:1), or GHL-Cu (1:1) complex of various analogs of GHL as the 1:1 copper complexes.
Stomach ulcers were induced in groups of rats as described above. The animals were dosed with increasing amounts of either GHL:Cu at a molar ration of 2 moles of GHL to 1 mole of Cu (2:1), equimolar complex (1:1), and GHL without copper. After 24 hours, the stomachs were removed, the pH was determined and the percent of stomachs with visible ulcers was determined.
The presence of ulcers is scored positive if a single lesion is noted, regardless of the size.

[2] = system: Stomach ulcers induced by the Shay procedure (buildup of stomach acid); assay: Shay model, stomach acidity and mucous secretion (Example 7); assay type: in vivo, rat; parameters: key to Mucous Production: 0 represented substantially no mucous observed; ++++ represented a very heavy mucous secretion; conditions: rats, after 24 hours; for Stomach acidity pH ± standard deviation: 10 mg in 0.25 ml saline intubated into the stomach
Experimental: Stomach ulcers were induced in rates by the Shay procedure. Briefly stated, the passage between the stomach and the intestine in the rat is tied off, thereby causing a buildup of stomach acid, resulting in ulceration. For treatment, the rats received 10 mg of GHL or GHL-Cu or a derivative thereof in 0.25 ml saline intubated into the stomach. Control rats received saline only. After 24 hours, the stomachs were photographed and the stomach acidity determined.
The results of the experiments are shown in Table 1, which depicts the inhibition of stomach acid accumulation and stimulation of cytoprotective mucous secretion in the rats. The mucous production was visually rated from 0 to ++++, where 0 represented substantially no mucous observed and ++++ represented a very heavy mucous secretion.

[3] = system: gastric ulcers induced by 95% ethanol; assay: Prevention of ethanol-induced gastric ulcers (Example 10); assay type: in vivo, SD rats; conditions: for Prevention of ethanol-caused gastric irritation and ulceration, in words: pretreatment, 95% ethanol ingestion; for Ulceration after ethanol, in words: stomachs inspected one hour after ethanol
Experimental: (§1) A series of ethanol induced gastric ulcer studies was conducted. Ulcers were induced by oral administration of 95% ethyl alcohol (Scan. J. Gastroenterol 23:665-671 (1988)). The studies were conducted to determine both the preventative and healing effects of glycl-L-histidyl-L-lysine:Cu.
A dose of 2.0 ml/kg 95% ethanol was chosen to induce gastric ulcers in rats. Prior to the ethanol ingestion, three groups of rats were pretreated with 0.5 ml of 2% glycyl-L-histidyl-L-lysine:Cu (1:1) as follows:
Group 1: 2 hours prior to Ethanol dosing
Group 2: 4 hours prior to Ethanol dosing
Group 3: 6 hours prior to Ethanol dosing
In addition, 4 rats served as controls with no pretreatment. One hour following ethanol administration, the stomachs were removed and inspected for ulceration as described above.

[4] = system: Duodenal ulcers induced by cysteamine; assay: Healing of cysteamine-induced duodenal ulcers (Example 9); assay type: in vivo, S.D. rats; conditions: for Healing of duodenal ulcers, in words: drinking water treatment, compared to controls
Experimental: Cysteamine will induce chronic duodenal ulcers in rats when injected subcutaneously (Olsen, P. S., Poulsen, S. S., Therkelsen, K., and Nexo, E., Oral administration of synthetic human urogastrone promotes healing of chronic duodenal ulcers in rats, Gastroenterology 90:911-917 (1986)).
Duodenal ulcers were induced in a group of 40 S.D. rats (male and female) by subcutaneous injections of cysteamine (350 mg/kg and 175 mg/kg) 6 hours apart. Saline was injected subcutaneously (5 cc) to provide fluid. Surviving animals (n=34) were followed for 7 days then laparotomies were performed. External examinations of the duodenum were made to determine extent of adhesion of the liver or other surrounding tissues. Animals with duodenal ulcers were randomized (by sex) to receive GHL-Cu (2:1) in distilled water, or plain distilled water. Animals were maintained for 25 days after which they were sedated, stomachs and duodenums removed and dissected for internal inspection. The results were obtained and recorded, specimens immersed in 10% buffered formalin for analysis with a stereomicroscope.
(§2) The following rating scale was used to express severity of ulceration:
(§3) 0--no indication of ulceration
1--mild ulceration, no extension through duodenum
2--moderate ulceration, fixation of surrounding tissue
3--extreme ulceration through duodenum
On the day of laparotomy, 28 rats ([…]) were determined to have significant adhesion of the duodenum to surrounding tissues. These animals were randomized by sex to either the GHL-Cu or control group. Following 25 days of drinking water treatment (total dose per day of 0.6 mg/kg), rats were sedated and prepped for dissection. The stomach and duodenum were removed, notations made as to extent of residual adhesions. Internal inspection of the duodenum was made prior to immersion of specimen in 10% formalin. Results at the time of gross inspection indicated 11 out of 14 control animals had significant residual ulcerations extending to the liver primarily.

[5] = system: ulcers induced by 95% ethanol; assay: Healing of ethanol-induced gastric ulcers (Example 10); assay type: in vivo, rats; conditions: for Healing of ethanol-induced ulcers, in words: drinking water treatment, compared to controls; for # animals with rating 0 (no indication of ulceration) / # animals with rating 1 (some irritation) / # animals with rating 2 (small ulcers present) / # animals with rating 3 (large ulcers present): day 7
Experimental: as §1
The ability of glycyl-L-histidyl-L-lysine:Cu (2:1) to heal ulcers induced by 95% ethanol has also been examined. In this study, ulcers were induced by administration of 4 ml/kg of 95% ethanol. The rats were then treated with glycyl-L-histidyl-L-lysine:Cu (2:1) in the drinking water at a dose of 0.01 mg/ml and 0.1 mg/ml (total dose per day of 1.6 mg/kg and 16 mg/kg, respectively). The rats were terminated at day 7 after ulcer induction and the stomachs examined for the presence of ulcers.
as §2, §3

[6] = microscopic examination, 25 days drinking water, 0.6 mg/kg per day
[7] = GHL-Cu (2:1) 0.01 mg/ml in drinking water (1.6 mg/kg per day)
[8] = GHL-Cu (2:1) 0.1 mg/ml in drinking water (16 mg/kg per day)

Row | Molecule | pH ([1]; dose 10 mg into stomach) [pH] | % WITH ULCERS ([1]; dose 10 mg, after 24 hours) [%] | Stomach acidity pH ± standard deviation [2] [pH] | Prevention of ethanol-caused gastric irritation and ulceration, in words [3] | Healing of duodenal ulcers, in words [4] | Ulcer formation and stomach acid secretion, in words [1] | pH ([1]; dose 3 mg into stomach) [pH] | % WITH ULCERS ([1]; dose 3 mg, after 24 hours) [%] | Healing of ethanol-induced ulcers, in words [5] | further results
1 | NCCCC[C@H](NC(=O)[C@H](Cc1c[nH]cn1)NC(=O)CN)C(=O)O [GHL, glycyl-L-histidyl-L-lysine] (H-Gly-His-Lys-OH) | 2.84 ± 0.90 | 40 | 3.26 ± 0.47 |  |  |  |  |  |  | 
2 | L-lysyl-L-histidyl-glycine:copper(II) [LGH-Cu] |  |  |  | prevent gastric irritation and ulceration | accelerate the healing of established duodenal ulcers | decreased stomach acid secretion and resulted in fewer visible lesions | 3.61 ± 1.00 | 11 | accelerate the healing of ulcers | 
3 | glycyl-L-histidyl-L-lysine n-octyl ester:copper(II) [GHL octyl ester:Cu] | 6.18 ± 0.98 | 0 |  |  |  |  | 3.50 ± 1.18 | 25 |  | 
4 | glycyl-L-histidyl-L-lysine:Cu (1:1) [GHL-Cu(1:1)] | 7.23 ± 0.64 | 0 |  |  |  | inhibited ulcer formation and raised the pH of the stomach contents in a dose responsive manner | 4.85 ± 1.17 | 0 |  | Ulceration after ethanol, in words ([3]; 0.5 ml of 2% solution 2 hours prior to 2.0 ml/kg 95% ethanol): No evidence of ulceration; also recorded: totally blocking damage; Ulceration after ethanol, in words ([3]; 0.5 ml of 2% solution 4 hours prior to 2.0 ml/kg 95% ethanol): Significantly better than controls, however, small ulcers were visible; Ulceration after ethanol, in words ([3]; 0.5 ml of 2% solution 6 hours prior to 2.0 ml/kg 95% ethanol): Mixed results; Lesion formation, in words (photographs, FIG. 1) ([1]; 10 mg, after 24 hours): complete inhibition of lesion formation; pH ([1]; dose 1 mg into stomach): 3.80 ± 1.34 pH; % WITH ULCERS ([1]; dose 1 mg, after 24 hours): 33%
5 | glycyl-L-histidyl-L-lysine:Cu (2:1) [GHL-Cu(2:1)] | 6.38 ± 1.01 | 11 |  |  | the severity was reduced | inhibited ulcer formation and raised the pH of the stomach contents in a dose responsive manner | 2.72 ± 1.03 | 50 |  | # animals with rating 0 (no indication of ulceration) [4, 6]: 4 animals; # animals with rating 1 (mild ulceration, no extension through duodenum) [4, 6]: 5 animals; # animals with rating 2 (moderate ulceration, fixation of surrounding tissue) [4, 6]: 3 animals; # animals with rating 3 (extreme ulceration through duodenum) [4, 6]: 2 animals
6 | glycyl-L-histidyl-L-lysine:copper(II) [GHL-Cu] |  |  | 6.94 ± 0.25 | prevent gastric irritation and ulceration | accelerate the healing of established duodenal ulcers | decreased stomach acid secretion and resulted in fewer visible lesions |  |  | majority of the animals had no demonstrable ulcers; also recorded: accelerate the healing of ulcers | Animals with residual ulcerations at gross inspection ([4]; GHL-Cu (2:1) in drinking water 25 days, 0.6 mg/kg per day, control 11 out of 14): 7 out of 14; # animals with rating 0 (no indication of ulceration) [5, 7]: 5 animals; # animals with rating 1 (some irritation) [5, 7]: 2 animals; # animals with rating 2 (small ulcers present) [5, 7]: 0 animals; # animals with rating 3 (large ulcers present) [5, 7]: 0 animals; # animals with rating 0 (no indication of ulceration) [5, 8]: 5 animals; # animals with rating 1 (some irritation) [5, 8]: 1 animals; # animals with rating 2 (small ulcers present) [5, 8]: 1 animals; # animals with rating 3 (large ulcers present) [5, 8]: 0 animals; Mucous Production ([2]; 10 mg in 0.25 ml saline, visually rated 0 to ++++): ++++

From patent US5023237A, “Methods and compositions for healing ulcers” (priority 1989, dated 1991)
